According to patent US20230044602A1, “CANCER SIGNATURES, METHODS OF GENERATING CANCER SIGNATURES, AND USES THEREOF” (EDWARD VIA COLLEGE OF OSTEOPATHIC MEDICINE, priority 2019, published 2023):

How the values were obtained:
GBM patients = test: Disease-free survival of PGS-stratified TCGA GBM patients treated with or without TMZ; type: in vivo, human; conditions: TCGA training cohort
Experimental: Clinical data on adjuvant chemotherapy (ACT) or TMZ administration for the TOGA training cohorts were retrieved from the NCI GDC data portal, and the Buffa hypoxia scores for each patient were retrieved from TOGA PanCancer Atlas through cBioPortal (Ref. 54). Differences in patient benefit from treatment across risk groups were assessed using one-tailed two-sample t-tests on unequal variances and Fisher's Exact Tests. Two-tailed two-sample t-tests on unequal variances assessed the correlation of PGS risk stratification with tumor hypoxia in NSCLC.

[1] = Refs. 3 and 11; cited from earlier work
NSCLC and GBM = conditions: Refs. 83-85; cited from earlier work

Cn1nnc2c(C(N)=O)ncn2c1=O [TMZ, Temozolomide]
average DFS time (GBM patients; high-risk progression GBM patients (GBM-PGS) treated with TMZ): 10.80 months
average DFS time (GBM patients; low-risk progression GBM patients (GBM-PGS) treated with TMZ): 16.52 months
penetration through the blood-brain barrier [1]: efficient penetration

NS(=O)(=O)c1cccc2c1C(=O)c1cccc(O)c1C2=O [LLL12]
efficacy in treating NSCLC and GBM (NSCLC and GBM): promising efficacy

Cc1cc(Nc2nc(N[C@@H](C)c3ncc(F)cn3)ncc2Cl)n[nH]1 [AZD1480]
efficacy in treating NSCLC and GBM (NSCLC and GBM): promising efficacy
